Data set [1] relates to mouse. The conditions noted are these: Carcinogenicity; b6c3f1; Oral; Feed; dose end: 24 month; group: systemic; systemic / in life observation / body weight / body weight gain.
Data set [2] relates to mouse. The conditions noted are these: Carcinogenicity, b6c3f1, Oral, Feed, dose end: 78 week, group: systemic.
Data set [3] relates to rat. The conditions noted are these: Carcinogenicity, other, Oral, Feed, dose end: 78 week, group: systemic.
For data set [4], the system named is rat. The conditions noted are these: Multigenerational reproductive toxicity study, sprague dawley, Oral, Feed, dose end: 2 generation.
The subject of data set [5] is mouse. The conditions noted are these: Carcinogenicity, cd1, Oral, Feed, dose end: 2 year, group: systemic.
The subject of data set [6] is dog. The conditions noted are these: Chronic toxicity, beagle, Oral, Capsule, dose end: 52 week.
The subject of data set [7] is rat. The conditions noted are these: Combined chronic toxicity/carcinogenicity, sprague dawley, Oral, Feed, dose end: 24 month.
The subject of data set [8] is mouse. The conditions noted are these: Carcinogenicity, other, Oral, Feed, dose end: 24 month, group: systemic.
Data set [9] relates to rat. The conditions noted are these: Prenatal developmental toxicity study, sprague dawley, Oral, Gavage/Intubation, dose end: 15 GD.
The next data set has as its system rabbit. The conditions noted are these: Prenatal developmental toxicity study, new zealand white, Oral, Gavage/Intubation, dose end: 18 GD.
The subject of data set [10] is dog. The conditions noted are these: Chronic toxicity, beagle, Oral, Feed, dose end: 52 week, group: systemic.
The subject of data set [11] is rat. The conditions noted are these: Subchronic oral toxicity in rodents, wistar, Feed, dose end: 98 day, group: systemic.
The subject of data set [12] is rat. The conditions noted are these: Combined chronic toxicity/carcinogenicity, wistar, Oral, Feed, dose end: 24 month, group: systemic.
In data set [13] the test system is mouse. The conditions noted are these: Subchronic oral toxicity in rodents, cd1, Feed, dose end: 98 day, group: systemic, systemic / organ weight / liver / absolute + systemic / organ weight / liver / relative to body weight + systemic / pathology microscopic / ….
Setting [14] is: systemic / in life observation / body weight / body weight.
The mark [15] stands for this setting: systemic / in life observation / body weight / body weight + systemic / pathology microscopic / liver / carcinoma + systemic / in life ….
Where [16] appears, read: systemic / in life observation / body weight / body weight + systemic / pathology microscopic / testes / atrophy.
Where [17] appears, read: systemic / pathology microscopic / adrenal gland / adenoma + systemic / in life observation / body weight / body weight + systemic / in life….
Setting [18] is: group: offspring, developmental / offspring survival late / lactation index / lactation index.
Setting [19] is: group: offspring, systemic / in life observation / body weight / offspring (pup) weight.
Setting [20] is: group: parental, systemic / in life observation / body weight / body weight.
Where [21] appears, read: group: reproductive, reproductive / offspring survival early / litter size / litter size.
[22] abbreviates: group: reproductive, reproductive / offspring survival early / litter size / litter size + reproductive / offspring survival early / litter viability other / ….
Setting [23] is: systemic / in life observation / mortality / mortality + systemic / hematology / lymphocyte / lymphocyte + systemic / in life observation / ….
Where [24] appears, read: group: cholinesterase, cholinesterase / cholinesterase / cholinesterase / brain cholinesterase (che) + cholinesterase / cholinesterase / cholinesterase / plasma ….
Where [25] appears, read: group: systemic, systemic / in life observation / body weight / body weight gain + systemic / in life observation / food consumption / food efficiency + ….
Setting [26] is: group: cholinesterase, cholinesterase / cholinesterase / cholinesterase / brain cholinesterase (che) + cholinesterase / cholinesterase / cholinesterase / ….
The mark [27] stands for this setting: group: systemic, systemic / in life observation / mortality / mortality.
Where [28] appears, read: group: systemic, systemic / in life observation / mortality / mortality + systemic / clinical chemistry / alanine aminotransferase (alt/sgpt) / alanine ….
Where [29] appears, read: systemic / clinical chemistry / albumin-globulin ratio / albumin-globulin ratio + systemic / clinical chemistry / glucose / glucose.
Setting [30] is: systemic / pathology microscopic / liver / fatty change + systemic / pathology microscopic / liver / granuloma + systemic / pathology ….
Setting [31] is: group: developmental, developmental / developmental malformation / bone / absent + developmental / developmental malformation / bone / delayed ossification + ….
Where [32] appears, read: group: maternal, systemic / in life observation / clinical signs / abnormal gait + systemic / in life observation / body weight / body weight + systemic / in….
[33] abbreviates: group: developmental, developmental / developmental malformation / bone / incomplete ossification.
The mark [34] stands for this setting: group: maternal, systemic / in life observation / body weight / body weight gain + systemic / in life observation / food consumption / food consumption.
[35] abbreviates: systemic / clinical chemistry / alanine aminotransferase (alt/sgpt) / alanine aminotransferase (alt/sgpt) + systemic / clinical chemistry / ….
Where [36] appears, read: systemic / pathology microscopic / spleen / hemosiderosis + systemic / pathology microscopic / liver / cytoplasmic alteration.
The mark [37] stands for this setting: systemic / in life observation / body weight / body weight + systemic / in life observation / body weight / body weight gain + systemic / in….
[38] abbreviates: systemic / clinical chemistry / creatinine / creatinine.

On to `Cc1c(C(=O)O)c(O)cc2c1C(=O)c1c(O)c([C@@H]3O[C@H](CO)[C@@H](O)[C@H](O)[C@H]3O)c(O)c(O)c1C2=O` [Carminic acid], for which, in the data set on mouse [1], the LEL came out at 4500 mg/kg/day, the LOAEL is greater than 9000 mg/kg/day, the NEL is less than 4500 mg/kg/day and the NOAEL was no less than 9000 mg/kg/day.

Take `CCOC(=O)C(O)(c1ccc(Cl)cc1)c1ccc(Cl)cc1` [Chlorobenzilate]: the LOAEL in the data set on mouse [2] (setting [14]) stood at 480 mg/kg/day; with rat [3] (setting [16]), 80 mg/kg/day. In addition, the NOAEL in the data set with mouse [2] (setting [14]) was less than 480 mg/kg/day; in the data set with rat [3] (setting [16]) it was less than 80 mg/kg/day. The LEL is 480 mg/kg/day with mouse [2] (setting [15]) and 58.8 mg/kg/day in the data set on rat [3] (setting [17]). The NEL in the data set on mouse [2] (setting [15]) is less than 480 mg/kg/day; in the data set on rat [3] (setting [17]), less than 58.8 mg/kg/day.

Consider `COP(=O)(OC)O/C(C)=C/C(=O)N(C)C` [Dicrotophos], for which the LOAEL in the data set with rat [4] (setting [18]) is greater than 2.53 mg/kg/day; in the data set with rat [4] (group: parental, systemic / in life observation / body weight / body weight + systemic / in life observation / food consumption / food efficiency), 0.49 mg/kg/day; with rat [4] (setting [21]), 0.56 mg/kg/day; in the data set with mouse [5] (systemic / in life observation / mortality / mortality) it was 1.58 mg/kg/day; in the data set on dog [6] (setting [24]), 0.1 mg/kg/day; in the data set on dog [6] (group: systemic, systemic / in life observation / body weight / body weight gain + systemic / in life observation / food consumption / food efficiency), 0.1 mg/kg/day. Besides, the LOAEL in the data set on rat [7] (setting [26]) was 0.02 mg/kg/day; in the data set on rat [7] (setting [27]) it was 0.25 mg/kg/day. In addition, the NOAEL in the data set with rat [4] (setting [18]) is no less than 2.53 mg/kg/day; with rat [4] (group: parental, systemic / in life observation / body weight / body weight + systemic / in life observation / food consumption / food efficiency + systemic…), 0.05 mg/kg/day; in the data set with rat [4] (setting [22]), 0.05 mg/kg/day; with mouse [5] (setting [23]), 0.31 mg/kg/day; in the data set with dog [6] (setting [24]), 0.025 mg/kg/day; with dog [6] (setting [25]), 0.025 mg/kg/day. For the same compound, the NOAEL in the data set with rat [7] (setting [26]) was less than 0.02 mg/kg/day; in the data set on rat [7] (setting [28]) it was 0.02 mg/kg/day. Moreover, the LEL in the data set with rat [4] (setting [19]) was found to be 0.05 mg/kg/day; in the data set on rat [4] (setting [20]), 0.06 mg/kg/day; in the data set with rat [4] (setting [21]), 0.56 mg/kg/day; in the data set on mouse [5] (systemic / in life observation / mortality / mortality + systemic / pathology gross / eye / discolored), 1.58 mg/kg/day; with dog [6] (setting [24]) it was 0.1 mg/kg/day; with dog [6] (setting [25]), 0.1 mg/kg/day. The LEL with rat [7] (setting [26]) was 0.02 mg/kg/day; with rat [7] (setting [27]), 0.25 mg/kg/day. For the same compound, the NEL in the data set with rat [4] (setting [19]) was less than 0.05 mg/kg/day; with rat [4] (setting [20]), less than 0.06 mg/kg/day; in the data set on rat [4] (setting [22]) it was 0.05 mg/kg/day; in the data set with mouse [5] (setting [23]), 0.31 mg/kg/day; in the data set with dog [6] (setting [24]) it was 0.025 mg/kg/day; with dog [6] (setting [25]) it was 0.025 mg/kg/day. The figures for the NEL with rat [7] (setting [26]) and in the data set on rat [7] (setting [28]) were less than 0.02 mg/kg/day and 0.02 mg/kg/day, respectively.

For the compound `CCC/C(=N\OCC)C1=C(O)CC(CC(C)SCC)CC1=O` (stereo not given) [Sethoxydim], the LEL is 4.85 mg/kg/day in the data set with mouse [8] (setting [29]); 180 mg/kg/day in the data set on rat [9] (group: developmental, developmental / developmental malformation / bone / absent); 650 mg/kg/day in the data set on rat [9] (group: maternal, systemic / in life observation / clinical signs / abnormal gait + systemic / in life observation / clinical signs / anogenital staining + …); 400 mg/kg/day in the data set with rabbit (setting [33]); 400 mg/kg/day with rabbit (setting [34]); 8.7 mg/kg/day in the data set on dog [10] (setting [36]). Besides, the LEL in the data set on rat [11] (systemic / organ weight / liver / relative to body weight + systemic / pathology microscopic / liver / hypertrophy) worked out at 60.4 mg/kg/day; with rat [12] (setting [38]) it was 12 mg/kg/day; with mouse [13], 137 mg/kg/day. Besides, the NEL in the data set on mouse [8] (setting [29]) is less than 4.85 mg/kg/day; in the data set on rat [9] (setting [31]) it was 50 mg/kg/day; in the data set on rat [9] (setting [32]), 180 mg/kg/day; with rabbit (setting [33]), 160 mg/kg/day; in the data set with rabbit (setting [34]), 160 mg/kg/day; with dog [10] (setting [36]) it was less than 8.7 mg/kg/day. Besides, the NEL in the data set on rat [11] (setting [37]) was 20.1 mg/kg/day; in the data set on rat [12] (setting [38]), less than 12 mg/kg/day; with mouse [13], 45.6 mg/kg/day. Moreover, the LOAEL came out at 41.2 mg/kg/day in the data set with mouse [8] (setting [30]); 650 mg/kg/day with rat [9] (setting [31]); 180 mg/kg/day in the data set on rat [9] (group: maternal, systemic / in life observation / clinical signs / abnormal gait); 400 mg/kg/day in the data set with rabbit (setting [33]); 400 mg/kg/day in the data set with rabbit (setting [34]); 110 mg/kg/day with dog [10] (setting [35]). The values for the LOAEL with rat [11] (setting [37]), in the data set with rat [12] (systemic / pathology microscopic / liver / hypertrophy) and in the data set on mouse [13] were 196 mg/kg/day, 48 mg/kg/day and 137 mg/kg/day, respectively. In addition, the NOAEL in the data set on mouse [8] (setting [30]) was 13.8 mg/kg/day; in the data set with rat [9] (setting [31]), 180 mg/kg/day; with rat [9] (setting [32]) it was 50 mg/kg/day; with rabbit (setting [33]) it was 160 mg/kg/day; in the data set on rabbit (setting [34]) it was 160 mg/kg/day; in the data set on dog [10] (setting [35]), 17.5 mg/kg/day. Also, the NOAEL was 60.4 mg/kg/day in the data set on rat [11] (setting [37]), 12 mg/kg/day in the data set with rat [12] (systemic / pathology microscopic / liver / hypertrophy + systemic / clinical chemistry / alkaline phosphatase (alp/alk) / alkaline …) and 45.6 mg/kg/day with mouse [13].

In general, LOAEL refers to the lowest tested level that showed an adverse finding. Usually NOAEL stands for the highest dose or exposure tested at which no adverse effect was seen.

The values are drawn from EPA's ToxRefDB 2.
